Measured values: patent US10253007B2, “Taxanes compounds, preparation method therefor, and uses thereof” (Jiangsu Tasly Diyi Pharmaceutical Co., Ltd., priority 2013, dated 2019)

What was measured:
K562 leukemia = test: MTT assay, proliferation inhibition; assay type: cell-based; conditions: Homo sapiens, read-out: Proliferation inhibition rate
Source text: (§1) 1. Cytotoxicity Assay Using Human Tumor Cell Lines
(§2) Paclitaxel was used as the positive drug.

HeLa cervical cancer = test: MTT assay, proliferation inhibition; assay type: cell-based; conditions: Homo sapiens, read-out: Proliferation inhibition rate
Source text: as §1, §2

DU145 prostate cancer = test: MTT assay, proliferation inhibition; assay type: cell-based; conditions: Homo sapiens, DU-145, read-out: Proliferation inhibition rate
Source text: as §1, §2

HL60 leukemia = test: MTT assay, proliferation inhibition; assay type: cell-based; conditions: Homo sapiens, HL-60, read-out: Proliferation inhibition rate
Source text: as §1, §2

BGC-823 gastric cancer = test: MTT assay, proliferation inhibition; assay type: cell-based; conditions: Homo sapiens, read-out: Proliferation inhibition rate
Source text: as §1, §2

[1] = tested on: NCI-H460 non-small cell lung cancer; test: MTT assay, proliferation inhibition; assay type: cell-based; conditions: Homo sapiens, read-out: Proliferation inhibition rate
Source text: as §1, §2

LNCaP prostate cancer = test: MTT assay, proliferation inhibition; assay type: cell-based; conditions: Homo sapiens, read-out: Proliferation inhibition rate
Source text: as §1, §2

[2] = tested on: A549 non-small cell lung cancer; test: MTT assay, proliferation inhibition; assay type: cell-based; conditions: Homo sapiens, read-out: Proliferation inhibition rate
Source text: as §1, §2

HCT 116 colon cancer = test: MTT assay, proliferation inhibition; assay type: cell-based; conditions: Homo sapiens, read-out: Proliferation inhibition rate
Source text: as §1, §2

MDA-MB-436 breast cancer = test: MTT assay, proliferation inhibition; assay type: cell-based; conditions: Homo sapiens, read-out: Proliferation inhibition rate
Source text: as §1, §2

[3] = MTT assay, proliferation inhibition; assay type: cell-based; conditions: Homo sapiens, LN-18 gastric cancer, read-out: Proliferation inhibition rate
Source text: as §1, §2

A2780 ovarian cancer = test: MTT assay, proliferation inhibition; assay type: cell-based; conditions: Homo sapiens, read-out: Proliferation inhibition rate
Source text: as §1, §2

A375 melanoma = test: MTT assay, proliferation inhibition; assay type: cell-based; conditions: Homo sapiens, A-375, read-out: Proliferation inhibition rate
Source text: as §1, §2

HT29 colon cancer = test: MTT assay, proliferation inhibition; assay type: cell-based; conditions: Homo sapiens, HT-29, read-out: Proliferation inhibition rate
Source text: as §1, §2

B16 melanoma = test: MTT assay, proliferation inhibition; assay type: cell-based; conditions: read-out: Proliferation inhibition rate
Source text: as §1, §2

MCF-7 breast cancer = test: MTT assay, proliferation inhibition; assay type: cell-based; conditions: Homo sapiens, MCF7, read-out: Proliferation inhibition rate
Source text: as §1, §2

[4] = Caco-2 cell monolayer membrane transport assay; conditions: human, A-B; for Papp A→B: Caco-2, Papp A-B; for recovery: Caco-2, Recovery rate in mass
Source text: Caco-2 Cell Monolayer Membrane Transport Assay
Human-derived colorectal adenocarcinoma cell line Caco-2 cell monolayer model was used to study the bidirectional transport of the target compounds from the apical (AP) side to the basolateral (BL) side and from BL side to AP side. HPLC was used for quantitative analysis to calculate transport parameters, apparent permeability coefficient (Papp) and the efflux ratio.

[5] = tested on: breast cancer cell line MCF-7; test: IC50 values on breast cancer cell line MCF-7; assay type: cell-based; conditions: Homo sapiens, MCF7, 72 h, read-out: MCF-7(IC50, nM)
Source text: From the activity evaluation data of the above-mentioned preliminary screen, it can be seen that the series of taxanes derivatives synthesized in the present invention have activity (although the activity of PCMI-43 is weakened). Afterward, most of the compounds are picked up from these derivatives to examine their IC50 values on breast cancer cell line MCF-7. Paclitaxel is used as the positive control drug. Experiments for each compound were independently repeated for three times and multiple holes were used in each experiment. The exposure time of drugs was 72 hours.

[6] = Mean, Caco-2, mean of two samples

SMILES	inhibition at 1 µM (K562 leukemia) [%]	inhibition at 1 µM (HeLa cervical cancer) [%]	inhibition at 1 µM (DU145 prostate cancer) [%]	inhibition at 1 µM (HL60 leukemia) [%]	inhibition at 1 µM (BGC-823 gastric cancer) [%]	inhibition at 1 µM [1] [%]	inhibition at 1 µM (LNCaP prostate cancer) [%]	inhibition at 1 µM [2] [%]	inhibition at 1 µM (HCT 116 colon cancer) [%]	inhibition at 1 µM (MDA-MB-436 breast cancer) [%]	inhibition at 1 µM [3] [%]	inhibition at 1 µM (A2780 ovarian cancer) [%]	inhibition at 1 µM (A375 melanoma) [%]	inhibition at 1 µM (HT29 colon cancer) [%]	inhibition at 1 µM (B16 melanoma) [%]	inhibition at 1 µM (MCF-7 breast cancer) [%]	Papp A→B ([4]; Sample-01, Caco-2, Sample-01) [×10⁻⁶ cm/s]	Papp A→B ([4]; Sample-02, Caco-2, Sample-02) [×10⁻⁶ cm/s]	recovery [4, 6] [%]	recovery ([4]; Sample-01, Caco-2, Sample-01) [%]	also measured
CO[C@H]1C[C@H]2OC[C@@]2(OC(C)=O)[C@H]2[C@H](OC(=O)c3ccccc3)[C@]3(O)C[C@H](OC(=O)[C@H](O)[C@@H](NC(=O)c4ccccc4)c4ccccc4)C(C)=C([C@@H](OC(=O)N(C)C)C(=O)[C@]12C)C3(C)C [PCMI-23]	93.8	99.8	84.8	97.2	94.5	83.3	81.8	77.8	78.3	84.8	96.3	94.8	87.7	87.9	80.8	93.5	3.21	2.68	87.1	100	recovery ([4]; Sample-02, Caco-2, Sample-02): 74%
CO[C@H]1C[C@H]2OC[C@@]2(OC(C)=O)[C@H]2[C@H](OC(=O)c3ccccc3)[C@]3(O)C[C@H](OC(=O)[C@H](O)[C@@H](NC(=O)OC(C)(C)C)c4ccccn4)C(C)=C([C@@H](OC(=O)N(C)C)C(=O)[C@]12C)C3(C)C [PCMI-24]	92.2	100	84.7	98.1	93.5	83.6	81.1	73.8	81.1	76.3	94	95.5	86.8	88.1	78.9	82.3	2.93	3.1	100	106	recovery ([4]; Sample-02, Caco-2, Sample-02): 94.8%
COC(=O)O[C@H]1C(=O)[C@]2(C)[C@@H](OC)C[C@H]3OC[C@@]3(OC(C)=O)[C@H]2[C@H](OC(=O)c2ccccc2)[C@]2(O)C[C@H](OC(=O)[C@H](O)[C@@H](NC(=O)c3ccccc3)c3ccccc3)C(C)=C1C2(C)C [PCMI-27]	94.5	99.5	83.3	97.4	94.1	80.4	82.6	74.8	78.3	83.3	96.3	94.1	103	87.3	79.2	95.3	4.44	4.31	95.6	99.3	recovery ([4]; Sample-02, Caco-2, Sample-02): 91.9%
COC(=O)O[C@H]1C(=O)[C@]2(C)[C@@H](OC)C[C@H]3OC[C@@]3(OC(C)=O)[C@H]2[C@H](OC(=O)c2ccccc2)[C@]2(O)C[C@H](OC(=O)[C@H](O)[C@@H](NC(=O)N(C)C)c3ccccc3)C(C)=C1C2(C)C [PCMI-29]	90.8	97.3	86.7	96.8	90.8	85.2	84.3	78.1	68.7	75.7	97.7	92.5	92.8	81.7	80.6	91.3	9.53	7.33	99.4	102	Papp A→B [4, 6]: 8.43 ×10⁻⁶ cm/s; recovery ([4]; Sample-02, Caco-2, Sample-02): 97%
CCSC(=O)O[C@H]1C(=O)[C@]2(C)[C@@H](OC)C[C@H]3OC[C@@]3(OC(C)=O)[C@H]2[C@H](OC(=O)c2ccccc2)[C@]2(O)C[C@H](OC(=O)[C@H](O)[C@@H](NC(=O)OC(C)(C)C)c3ccccc3)C(C)=C1C2(C)C [PCMI-30]	92.6	101	90.3	98.5	94.9	85.8	86.2	75.8	65.5	81.3	95	95.6	96.9	87.8	81.7	95.8	5.78	3.59	76.5	70.4	Papp A→B [4, 6]: 4.68 ×10⁻⁶ cm/s; recovery ([4]; Sample-02, Caco-2, Sample-02): 82.6%
CO[C@H]1C(=O)[C@]2(C)[C@@H](OC(=O)N(C)C)C[C@H]3OC[C@@]3(OC(C)=O)[C@H]2[C@H](OC(=O)c2ccccc2)[C@]2(O)C[C@H](OC(=O)[C@H](O)[C@@H](NC(=O)c3ccccc3)c3ccccc3)C(C)=C1C2(C)C [PCMI-32]	91	103	87.5	97.8	95.1	86.6	83.4	74.5	57.7	74.4	92.2	95.8	90.4	89.8	77.8	102	3.16	3.38	81.9	82.1	IC50 [5]: 64.67 ± 0.18 nM; recovery ([4]; Sample-02, Caco-2, Sample-02): 81.6%
CO[C@H]1C(=O)[C@]2(C)[C@@H](OC(=O)N(C)C)C[C@H]3OC[C@@]3(OC(C)=O)[C@H]2[C@H](OC(=O)c2ccccc2)[C@]2(O)C[C@H](OC(=O)[C@H](O)[C@@H](NC(=O)OC(C)(C)C)c3ccccn3)C(C)=C1C2(C)C [PCMI-33]	91.1	103	86.3	97.8	94.1	87.8	83.6	74.1	56	76.2	93.2	94.7	90.3	89.1	81.8	83.5	4.27	4.54	94.9	95.8	IC50 [5]: 46.63 ± 0.14 nM; recovery ([4]; Sample-02, Caco-2, Sample-02): 94%
COC(=O)O[C@H]1C[C@H]2OC[C@@]2(OC(C)=O)[C@H]2[C@H](OC(=O)c3ccccc3)[C@]3(O)C[C@H](OC(=O)[C@H](O)[C@@H](NC(=O)c4ccccc4)c4ccccc4)C(C)=C([C@@H](OC)C(=O)[C@]12C)C3(C)C [PCMI-37]	94.5	102	88.5	97	95.7	89.5	85.5	80	67.4	86.1	98.3	96.4	97.4	89.7	85.3	103	3.23	3.41	80.6	81.2	recovery ([4]; Sample-02, Caco-2, Sample-02): 80%
COC(=O)O[C@H]1C[C@H]2OC[C@@]2(OC(C)=O)[C@H]2[C@H](OC(=O)c3ccccc3)[C@]3(O)C[C@H](OC(=O)[C@H](O)[C@@H](NC(=O)OC(C)(C)C)c4ccccn4)C(C)=C([C@@H](OC)C(=O)[C@]12C)C3(C)C [PCMI-38]	94.7	102	89.2	97.4	95.7	88.7	82.4	80.3	64	85.9	96.6	96.5	88.3	89.8	83.3	106	4.71	4.35	121	122	recovery ([4]; Sample-02, Caco-2, Sample-02): 120%
